Test results: article PMC7697948, “Deciphering Novel Antimicrobial Peptides from the Transcriptome of Papilio xuthus” (Insects, 2020)

What was measured:
[1] = cited from earlier work
Excerpt: (§1) Papilio xuthus (P. xuthus), commonly known as the swallowtail butterfly, is found in the far east Asian regions of Korea, Japan, China, Taiwan, and Myanmar. Papiliocin is the 37 residue α-helical cecropin-like AMP isolated from an immune challenged larvae of swallowtail butterfly. […] Additionally, the antibacterial and antifungal activity of papiliocin is observed in multidrug- resistant bacterial and fungal strains, respective ...

[2] = test system: Gram-positive and Gram-negative bacteria; settings: effect more pronounced in Gram-negative strains; cited from earlier work
Excerpt: as §1

mammalian cells = settings: cited from earlier work
Excerpt: as §1

mouse erythrocytes = assay: Hemolytic assay; format: cell-based; settings: 12.5 μg/mL; 2.5% (v/v) mouse erythrocytes in PBS, 30 min at 37 °C, absorbance at 540 nm; at least three independent experiments in triplicate
Method: This experiment was approved by the Institutional Animal Care and Use Committee (IACUC) of the National Institute of Agricultural Sciences (approval number: NAS-202014). The hemolytic activity of the peptides was determined by monitoring the release of hemoglobin from mouse erythrocytes at 540 nm. For the hemolytic assay, 20 μL of each peptide solution at a predetermined concentration was added to 180 μL of a 2.5% (v/v) suspension of mouse erythrocytes in phosphate-buffered saline (PBS). Melittin (Sigma, USA), a hemolytic and α-helical peptide isolated from bee venom, was used as the positive control. This mixture was incubated for 30 min at 37 °C, and 600 μL of PBS was then added to each tube. After 3 min of centrifugation at 10,000× g, the supernatant was removed, and the absorbance was measured at 540 nm. Evaluations were made from the results of at least three independent experiments, each carried out in triplicate.

Molecule | anti-inflammatory activity [1] | bactericidal activity [2] | toxicity toward mammalian cells (mammalian cells) | hemolysis of mouse red blood cells (mouse erythrocytes) [%]
Papiliocin | anti-inflammatory activity | bactericidal activity against both Gram-positive and Gram-negative bacteria | non-toxicity toward mammalian cells | 
CC[C@H](C)[C@H](NC(=O)CN)C(=O)NCC(=O)N[C@@H](C)C(=O)N[C@H](C(=O)N[C@@H](CC(C)C)C(=O)N[C@@H](CCCCN)C(=O)N[C@H](C(=O)N[C@@H](CC(C)C)C(=O)N[C@H](C(=O)N[C@H](C(=O)NCC(=O)N[C@@H](CC(C)C)C(=O)N1CCC[C@H]1C(=O)N[C@@H](C)C(=O)N[C@@H](CC(C)C)C(=O)N[C@H](C(=O)N[C@@H](CO)C(=O)N[C@@H](Cc1c[nH]c2ccccc12)C(=O)N[C@H](C(=O)N[C@@H](CCCCN)C(=O)N[C@@H](CCCNC(=N)N)C(=O)N[C@@H](CCCCN)C(=O)N[C@@H](CCCNC(=N)N)C(=O)N[C@@H](CCC(N)=O)C(=O)N[C@@H](CCC(N)=O)C(N)=O)[C@@H](C)CC)[C@@H](C)CC)[C@@H](C)O)[C@@H](C)O)C(C)C)C(C)C [Melittin] |  |  |  | 92
